The solubility is the concentration that dissolves in the medium under given conditions. A high value points to much dissolved substance.

Here are results for one compound from patent publication US20230299326A1, “REDOX FLOW BATTERY” (MITSUBISHI HEAVY INDUSTRIES, LTD., priority 2020, published 2023).

Converted amounts (≈) assume the structure as drawn.

A short description of series [1]: Cyclic voltammogram of the hydroquinone pentamer (redox potential). Conditions: glassy carbon working electrode, Ag/AgCl (3 M sodium chloride solution) reference, platinum wire counter electrode, sweep rate 25 mV/sec. Type of series: physicochemical. An excerpt: A cyclic voltammogram of the hydroquinone pentamer thus obtained was obtained. The measurement was made using a 5-mm diameter glassy carbon as the working electrode, Ag/AgCl (3 M sodium chloride solution) as the reference electrode, and platinum wire as the counter electrode at a sweep rate of 25 mV/sec.

The nature of series [2]: Solubility of the hydroquinone pentamer. Type of series: physicochemical. As to conditions: per hydroquinone unit.

As for `Oc1cc2c(O)cc1Cc1cc(O)c(cc1O)Cc1cc(O)c(cc1O)Cc1cc(O)c(cc1O)Cc1cc(O)c(cc1O)C2` [hydroquinone pentamer], the redox potential in series [1] was -0.75 V vs. SHE. The same compound showed a solubility in series [2] of 1800 mM (≈ 1100 mg/mL).
